In patent publication US20090156477A1, “Compositions and Methods for Regulating Inflammatory Responses” (Massachusetts Institute of Technology, priority 2005, published 2009):

Assays:
Wnt3 = assay: RT-PCR expression in Caco-2 cells after FGF treatment: Wnt3; type: cell-based, human; details: normalized to PBS treatment, defined as 1.0
Text: Five μg of total RNA was isolated from Caco-2 cells using Trizol reagent (Life Tech, Rockville, Md.) followed by reverse transcription with random hexamers. Specific oligomers were designed based on published sequences in order to detect the expression of specific human Wnt, Fz and syndecan isoforms. Sequences of primer pairs were as follows: Wnt-1: 5′-CACGACCTCGTCTACTTCGAC-3′ (SEQ ID NO: 17) and 5′-ACAGACACTCGTGCAGTACGC-3′ (SEQ ID NO: 18); Wnt-2: 5′-CATGGTGGTACATGAGAGCTAC-3′ (SEQ ID NO: 19) and 5′-GGCAAATACAACTCCAGCTGAG-3′ (SEQ ID NO: 20); Wnt-3: 5′-GAGAGCCTCCCCGTCCACAG-3′ (SEQ ID NO: 21) and 5′-CTGCCAGGAGTGTATTCGCATC-3′ (SEQ ID NO: 22); Wnt-3a: 5′-CAGGAACTACGTGGAGATCATG-3′ (SEQ ID NO: 23) and 5′-CCATCCCACCAAACTCGATGTC-3′ (SEQ ID NO: 24); Fz-1: 5′-GAACTTTCCTCCAACTTCATGGC-3′ (SEQ ID NO: 25) and 5′-CATTTCCATTTTACAGACCGG-3′ (SEQ ID NO: 26); Fz-2: 5′-GGTGAGCCAGCACTGCAAGAG-3′ (SEQ ID NO: 27) and 5′-CCTAAAAGTGAAATGGTTTCGATCG-3′ (SEQ ID NO: 28); Fz-10: 5′-ACACGTCCAACGCCAGCATG-3′ (SEQ ID NO: 29) and 5′-ACGAGTCATGTTGTAGCCGATG-3′ (SEQ ID NO: 30); and Syndecan-1/Sdc-1/CD138: 5′-CTTCACACTCCCCACACAGA-3′ (SEQ ID NO: 31) and 5′-TCCTGTTTGGTGGGCTTCTG-3′ (SEQ ID NO: 32). To control for total cell […], RT-PCR was also performed on β-actin using the primers 5′-GCCAGCTCACCATGGATGATGATAT-3′ (SEQ ID NO: 33) and 5′-GCTTGCTGATCCACATCTGCTGGAA-3′ (SEQ ID NO: 34). PCR was performed using the Advantage-GC cDNA kit from Clontech as per manufacturer's instructions (Palo Alto, Calif.).

β-catenin = assay: Immunohistochemistry for β-catenin in Caco-2 cells; type: cell-based, human; details: compared to PBS treatment
Description: Caco-2 cells were grown to just prior to confluency on collagen IV coated glass slides. Cells were treated with PBS, FGF1, FGF2 and FGF7, and were incubated at 37° C. in a 5% CO2 humidified incubator for 1 hour, 4 hours, 24 hours or 48 hours, as noted. Cells were washed with PBS, fixed with 3.7% formalin for 10 minutes and washed again with PBS. Cells were treated with 0.1% Triton x-100 for 5 minutes to extract lipids. Cells were washed with PBS and preincubated with PBS supplemented with 1% bovine serum albumin. Primary antibodies were added for 4 hours at room temperature, and cells were washed with PBS. Primary antibodies used were as follows: rabbit anti-human ZO-1 (1:160; Zymed Laboratories, San Francisco, Calif.); mouse anti-human syndecan-1 (1:300; Santa Cruz Biotechnology); goat anti-human Fz-1 (1:125; Santa Cruz Biotechnology); rabbit anti-human caveolin-1 (1:250; Santa Cruz Biotechnology); goat anti-human glypican-1 (1:100; Santa Cruz Biotechnology); mouse anti-human E-cadherin (1:250; Zymed Laboratories); rabbit anti-human β-catenin (1:125; Cell Signaling Technology, Beverly, Mass.); and rabbit anti-human phospho-β-catenin (Ser33/37/Thr41; 1:125; Cell Signaling Technology, Beverly, Mass.).
Cells were then treated with secondary antibodies, Texas Red-labeled phalloidin (Molecular Probes, Eugene, Oreg.) or FLAER-FL1 (1:400; Protox Biotech, Victoria, BC, Canada) as appropriate for 1 hour in the dark at room temperature. […]
Cells, except those stained with phalloidin, were washed with PBS and stained with diamidino-2-phenylindole (DAPI) for 5 minutes at room temperature (Molecular Probes). […] Cells were examined by confocal microscopy (ZO-1 and phalloidin only), or by fluorescence microscopy. A Nikon HB10101AF fluorescence microscope was used and images were captured at room temperature using a Hitachi HVC20 camera and Scion image acquisition software. […]

## FGF1: Recombinant human FGF1 from Amgen
Wnt3
  Wnt3 expression (intensity of RT-PCR images): 1.3
β-catenin
  cytoplasmic β-catenin after 24 hours: potentially reduced levels of cytoplasmic β-catenin

## FGF2: Recombinant human FGF2, produced as described
Wnt3
  Wnt3 expression (intensity of RT-PCR images): 1.3
β-catenin
  cytoplasmic β-catenin after 24 hours: induced markedly increased cytoplasmic β-catenin

B1: FGF7: Recombinant human FGF7 from Sigma (protein, UniProt P21781 32-194, looked up)
Fibroblast growth factor 7: CNDMTPEQMATNVNCSSPERHTRSYDYMEGGDIRVRRLFCRTQWYLRIDKRGKVKGTQEMKNNYNIMEIRTVAVGIVAIKGVESEFYLAMNKEGKLYAKKECNEDCNFKELILENHYNTYASAKWTHNGGEMFVALNQKGIPVRGKKTKKEQKTAHFLPMAIT
Wnt3
  Wnt3 expression (intensity of RT-PCR images): 1.2
β-catenin
  cytoplasmic β-catenin after 24 hours: induced markedly increased cytoplasmic β-catenin
